Measured values reported in paper PMC7213978, “The dynamic interplay of host and viral enzymes in type III CRISPR-mediated cyclic nucleotide signalling” (eLife, 2020).

Target: T1, AcrIII-1 (SIRV1 gp29) (Sulfolobus islandicus rod-shaped virus 1, UniProt Q8QL27, H47A)
T1 construct: gene 114
Assay: biochemical

T1 sequence (Q8QL27 whole entry H47A): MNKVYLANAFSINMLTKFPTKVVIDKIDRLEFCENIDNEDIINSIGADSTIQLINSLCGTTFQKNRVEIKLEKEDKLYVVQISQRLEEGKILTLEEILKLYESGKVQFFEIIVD

## Nc1ncnc2c1ncn2[C@@H]1O[C@@H]2COP(=O)(O)O[C@H]3[C@@H](O)[C@H](n4cnc5c(N)ncnc54)O[C@@H]3COP(=O)(O)O[C@H]3[C@@H](O)[C@H](n4cnc5c(N)ncnc54)O[C@@H]3COP(=O)(O)O[C@H]3[C@@H](O)[C@H](n4cnc5c(N)ncnc54)O[C@@H]3COP(=O)(O)O[C@H]2[C@H]1O [cA4, cyclic tetra-adenylate]
  Kd: ~25 nM
